Measured values published in PubChem BioAssay (NCI).
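All cell lines were grown in 96-well plates and treated with compound for 48 hours. TGI: total growth inhibition.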

System: HCT-116 colon
Assay: DTP human tumour cell line panel, 48 h

SMILES	TGI [µM]
Cc1ccc(C(=O)NCc2ccccc2)cc1N=NN(C)C	> 100
c1ccc2c3[nH]c(c2c1)=Nc1ccc(cc1)-c1nc2ccc(cc2o1)N=c1[nH]c(c2ccccc12)=Nc1ccc2nc(oc2c1)-c1ccc(cc1)N=3	> 100
COc1cccc(CC(=O)N2CCN(CCCc3ccccc3)CC2)c1	> 100
Cn1c(=S)c2[nH]c(SCCCc3ccccc3)nc2n(C)c1=O	> 100
O=C1CC(=O)NC(=NN2C(=O)/C(=C/c3ccc(Cl)c(Cl)c3)N=C2c2ccccc2)N1	38
CC1=NC(C)(COC(=O)C2(C)NC(C)(CO)CO2)COC1=O (stereo not given)	> 100
CC(=O)NC1C(Sc2ncn(C3OC(CO)C(O)C(O)C3NC(C)=O)n2)OC(CO)C(O)C1O (stereo not given)	> 100

System: COLO 205 colon
Assay: DTP human tumour cell line panel, 48 h

SMILES	TGI [µM]
Cc1ccc(C(=O)NCc2ccccc2)cc1N=NN(C)C	> 100
c1ccc2c3[nH]c(c2c1)=Nc1ccc(cc1)-c1nc2ccc(cc2o1)N=c1[nH]c(c2ccccc12)=Nc1ccc2nc(oc2c1)-c1ccc(cc1)N=3	67.8
COc1cccc(CC(=O)N2CCN(CCCc3ccccc3)CC2)c1	> 100
Cn1c(=S)c2[nH]c(SCCCc3ccccc3)nc2n(C)c1=O	25.4
O=C1CC(=O)NC(=NN2C(=O)/C(=C/c3ccc(Cl)c(Cl)c3)N=C2c2ccccc2)N1	34.1
CC1=NC(C)(COC(=O)C2(C)NC(C)(CO)CO2)COC1=O (stereo not given)	> 100
CC(=O)NC1C(Sc2ncn(C3OC(CO)C(O)C(O)C3NC(C)=O)n2)OC(CO)C(O)C1O (stereo not given)	> 100

System: HOP-62 NSCLC
Assay: DTP human tumour cell line panel, 48 h

SMILES	TGI [µM]
Cc1ccc(C(=O)NCc2ccccc2)cc1N=NN(C)C	> 100
c1ccc2c3[nH]c(c2c1)=Nc1ccc(cc1)-c1nc2ccc(cc2o1)N=c1[nH]c(c2ccccc12)=Nc1ccc2nc(oc2c1)-c1ccc(cc1)N=3	> 100
COc1cccc(CC(=O)N2CCN(CCCc3ccccc3)CC2)c1	> 100
Cn1c(=S)c2[nH]c(SCCCc3ccccc3)nc2n(C)c1=O	> 100
O=C1CC(=O)NC(=NN2C(=O)/C(=C/c3ccc(Cl)c(Cl)c3)N=C2c2ccccc2)N1	79.6
CC1=NC(C)(COC(=O)C2(C)NC(C)(CO)CO2)COC1=O (stereo not given)	> 100
CC(=O)NC1C(Sc2ncn(C3OC(CO)C(O)C(O)C3NC(C)=O)n2)OC(CO)C(O)C1O (stereo not given)	> 100

System: DMS 273 small cell lung
Assay: DTP human tumour cell line panel, 48 h

SMILES	TGI [µM]
Cc1ccc(C(=O)NCc2ccccc2)cc1N=NN(C)C	> 100

System: KM12 colon
Assay: DTP human tumour cell line panel, 48 h

SMILES	TGI [µM]
Cc1ccc(C(=O)NCc2ccccc2)cc1N=NN(C)C	> 100
c1ccc2c3[nH]c(c2c1)=Nc1ccc(cc1)-c1nc2ccc(cc2o1)N=c1[nH]c(c2ccccc12)=Nc1ccc2nc(oc2c1)-c1ccc(cc1)N=3	> 100
COc1cccc(CC(=O)N2CCN(CCCc3ccccc3)CC2)c1	> 100
Cn1c(=S)c2[nH]c(SCCCc3ccccc3)nc2n(C)c1=O	> 100
O=C1CC(=O)NC(=NN2C(=O)/C(=C/c3ccc(Cl)c(Cl)c3)N=C2c2ccccc2)N1	40.1
CC1=NC(C)(COC(=O)C2(C)NC(C)(CO)CO2)COC1=O (stereo not given)	> 100
CC(=O)NC1C(Sc2ncn(C3OC(CO)C(O)C(O)C3NC(C)=O)n2)OC(CO)C(O)C1O (stereo not given)	> 100

System: HS 578T breast
Assay: DTP human tumour cell line panel, 48 h

SMILES	TGI [µM]
Cc1ccc(C(=O)NCc2ccccc2)cc1N=NN(C)C	> 100
c1ccc2c3[nH]c(c2c1)=Nc1ccc(cc1)-c1nc2ccc(cc2o1)N=c1[nH]c(c2ccccc12)=Nc1ccc2nc(oc2c1)-c1ccc(cc1)N=3	> 100
COc1cccc(CC(=O)N2CCN(CCCc3ccccc3)CC2)c1	> 100
Cn1c(=S)c2[nH]c(SCCCc3ccccc3)nc2n(C)c1=O	> 100
O=C1CC(=O)NC(=NN2C(=O)/C(=C/c3ccc(Cl)c(Cl)c3)N=C2c2ccccc2)N1	50.9
CC1=NC(C)(COC(=O)C2(C)NC(C)(CO)CO2)COC1=O (stereo not given)	> 100
CC(=O)NC1C(Sc2ncn(C3OC(CO)C(O)C(O)C3NC(C)=O)n2)OC(CO)C(O)C1O (stereo not given)	> 100

System: RXF 393 renal
Assay: DTP human tumour cell line panel, 48 h

SMILES	TGI [µM]
c1ccc2c3[nH]c(c2c1)=Nc1ccc(cc1)-c1nc2ccc(cc2o1)N=c1[nH]c(c2ccccc12)=Nc1ccc2nc(oc2c1)-c1ccc(cc1)N=3	> 100
Cn1c(=S)c2[nH]c(SCCCc3ccccc3)nc2n(C)c1=O	> 100
O=C1CC(=O)NC(=NN2C(=O)/C(=C/c3ccc(Cl)c(Cl)c3)N=C2c2ccccc2)N1	92.6
CC1=NC(C)(COC(=O)C2(C)NC(C)(CO)CO2)COC1=O (stereo not given)	> 100
CC(=O)NC1C(Sc2ncn(C3OC(CO)C(O)C(O)C3NC(C)=O)n2)OC(CO)C(O)C1O (stereo not given)	> 100

System: NCI-H522 lung
Assay: DTP human tumour cell line panel, 48 h

SMILES	TGI [µM]
Cc1ccc(C(=O)NCc2ccccc2)cc1N=NN(C)C	90.1
c1ccc2c3[nH]c(c2c1)=Nc1ccc(cc1)-c1nc2ccc(cc2o1)N=c1[nH]c(c2ccccc12)=Nc1ccc2nc(oc2c1)-c1ccc(cc1)N=3	> 100
COc1cccc(CC(=O)N2CCN(CCCc3ccccc3)CC2)c1	> 100
Cn1c(=S)c2[nH]c(SCCCc3ccccc3)nc2n(C)c1=O	> 100
O=C1CC(=O)NC(=NN2C(=O)/C(=C/c3ccc(Cl)c(Cl)c3)N=C2c2ccccc2)N1	86
CC1=NC(C)(COC(=O)C2(C)NC(C)(CO)CO2)COC1=O (stereo not given)	> 100
CC(=O)NC1C(Sc2ncn(C3OC(CO)C(O)C(O)C3NC(C)=O)n2)OC(CO)C(O)C1O (stereo not given)	> 100

System: LOX IMVI melanoma
Assay: DTP human tumour cell line panel, 48 h

SMILES	TGI [µM]
Cc1ccc(C(=O)NCc2ccccc2)cc1N=NN(C)C	> 100
c1ccc2c3[nH]c(c2c1)=Nc1ccc(cc1)-c1nc2ccc(cc2o1)N=c1[nH]c(c2ccccc12)=Nc1ccc2nc(oc2c1)-c1ccc(cc1)N=3	> 100
COc1cccc(CC(=O)N2CCN(CCCc3ccccc3)CC2)c1	> 100
Cn1c(=S)c2[nH]c(SCCCc3ccccc3)nc2n(C)c1=O	> 100
CC1=NC(C)(COC(=O)C2(C)NC(C)(CO)CO2)COC1=O (stereo not given)	> 100
CC(=O)NC1C(Sc2ncn(C3OC(CO)C(O)C(O)C3NC(C)=O)n2)OC(CO)C(O)C1O (stereo not given)	> 100

System: SK-OV-3 ovarian
Assay: DTP human tumour cell line panel, 48 h

SMILES	TGI [µM]
Cc1ccc(C(=O)NCc2ccccc2)cc1N=NN(C)C	> 100
c1ccc2c3[nH]c(c2c1)=Nc1ccc(cc1)-c1nc2ccc(cc2o1)N=c1[nH]c(c2ccccc12)=Nc1ccc2nc(oc2c1)-c1ccc(cc1)N=3	> 100
COc1cccc(CC(=O)N2CCN(CCCc3ccccc3)CC2)c1	> 100
Cn1c(=S)c2[nH]c(SCCCc3ccccc3)nc2n(C)c1=O	> 100
O=C1CC(=O)NC(=NN2C(=O)/C(=C/c3ccc(Cl)c(Cl)c3)N=C2c2ccccc2)N1	> 100
CC1=NC(C)(COC(=O)C2(C)NC(C)(CO)CO2)COC1=O (stereo not given)	> 100
CC(=O)NC1C(Sc2ncn(C3OC(CO)C(O)C(O)C3NC(C)=O)n2)OC(CO)C(O)C1O (stereo not given)	> 100

System: NCI/ADR-RES ovarian
Assay: DTP human tumour cell line panel, 48 h

SMILES	TGI [µM]
Cc1ccc(C(=O)NCc2ccccc2)cc1N=NN(C)C	> 100
c1ccc2c3[nH]c(c2c1)=Nc1ccc(cc1)-c1nc2ccc(cc2o1)N=c1[nH]c(c2ccccc12)=Nc1ccc2nc(oc2c1)-c1ccc(cc1)N=3	> 100
COc1cccc(CC(=O)N2CCN(CCCc3ccccc3)CC2)c1	94.3
Cn1c(=S)c2[nH]c(SCCCc3ccccc3)nc2n(C)c1=O	> 100
O=C1CC(=O)NC(=NN2C(=O)/C(=C/c3ccc(Cl)c(Cl)c3)N=C2c2ccccc2)N1	54.2
CC1=NC(C)(COC(=O)C2(C)NC(C)(CO)CO2)COC1=O (stereo not given)	> 100
CC(=O)NC1C(Sc2ncn(C3OC(CO)C(O)C(O)C3NC(C)=O)n2)OC(CO)C(O)C1O (stereo not given)	> 100

System: SF-295 CNS
Assay: DTP human tumour cell line panel, 48 h

SMILES	TGI [µM]
Cc1ccc(C(=O)NCc2ccccc2)cc1N=NN(C)C	> 100
c1ccc2c3[nH]c(c2c1)=Nc1ccc(cc1)-c1nc2ccc(cc2o1)N=c1[nH]c(c2ccccc12)=Nc1ccc2nc(oc2c1)-c1ccc(cc1)N=3	> 100
COc1cccc(CC(=O)N2CCN(CCCc3ccccc3)CC2)c1	> 100
Cn1c(=S)c2[nH]c(SCCCc3ccccc3)nc2n(C)c1=O	79.9
O=C1CC(=O)NC(=NN2C(=O)/C(=C/c3ccc(Cl)c(Cl)c3)N=C2c2ccccc2)N1	> 100
CC1=NC(C)(COC(=O)C2(C)NC(C)(CO)CO2)COC1=O (stereo not given)	> 100
CC(=O)NC1C(Sc2ncn(C3OC(CO)C(O)C(O)C3NC(C)=O)n2)OC(CO)C(O)C1O (stereo not given)	> 100

System: SF-539 CNS
Assay: DTP human tumour cell line panel, 48 h

SMILES	TGI [µM]
Cc1ccc(C(=O)NCc2ccccc2)cc1N=NN(C)C	> 100
c1ccc2c3[nH]c(c2c1)=Nc1ccc(cc1)-c1nc2ccc(cc2o1)N=c1[nH]c(c2ccccc12)=Nc1ccc2nc(oc2c1)-c1ccc(cc1)N=3	> 100
COc1cccc(CC(=O)N2CCN(CCCc3ccccc3)CC2)c1	> 100
Cn1c(=S)c2[nH]c(SCCCc3ccccc3)nc2n(C)c1=O	> 100
O=C1CC(=O)NC(=NN2C(=O)/C(=C/c3ccc(Cl)c(Cl)c3)N=C2c2ccccc2)N1	39.6
CC1=NC(C)(COC(=O)C2(C)NC(C)(CO)CO2)COC1=O (stereo not given)	> 100
CC(=O)NC1C(Sc2ncn(C3OC(CO)C(O)C(O)C3NC(C)=O)n2)OC(CO)C(O)C1O (stereo not given)	> 100

System: SN12C renal
Assay: DTP human tumour cell line panel, 48 h

SMILES	TGI [µM]
Cc1ccc(C(=O)NCc2ccccc2)cc1N=NN(C)C	> 100
c1ccc2c3[nH]c(c2c1)=Nc1ccc(cc1)-c1nc2ccc(cc2o1)N=c1[nH]c(c2ccccc12)=Nc1ccc2nc(oc2c1)-c1ccc(cc1)N=3	> 100
COc1cccc(CC(=O)N2CCN(CCCc3ccccc3)CC2)c1	> 100
Cn1c(=S)c2[nH]c(SCCCc3ccccc3)nc2n(C)c1=O	> 100
O=C1CC(=O)NC(=NN2C(=O)/C(=C/c3ccc(Cl)c(Cl)c3)N=C2c2ccccc2)N1	34.8
CC1=NC(C)(COC(=O)C2(C)NC(C)(CO)CO2)COC1=O (stereo not given)	> 100
CC(=O)NC1C(Sc2ncn(C3OC(CO)C(O)C(O)C3NC(C)=O)n2)OC(CO)C(O)C1O (stereo not given)	> 100

System: MDA-MB-231 breast
Assay: DTP human tumour cell line panel, 48 h

SMILES	TGI [µM]
Cc1ccc(C(=O)NCc2ccccc2)cc1N=NN(C)C	> 100
c1ccc2c3[nH]c(c2c1)=Nc1ccc(cc1)-c1nc2ccc(cc2o1)N=c1[nH]c(c2ccccc12)=Nc1ccc2nc(oc2c1)-c1ccc(cc1)N=3	> 100
COc1cccc(CC(=O)N2CCN(CCCc3ccccc3)CC2)c1	> 100
Cn1c(=S)c2[nH]c(SCCCc3ccccc3)nc2n(C)c1=O	> 100
O=C1CC(=O)NC(=NN2C(=O)/C(=C/c3ccc(Cl)c(Cl)c3)N=C2c2ccccc2)N1	51.7
CC1=NC(C)(COC(=O)C2(C)NC(C)(CO)CO2)COC1=O (stereo not given)	> 100
CC(=O)NC1C(Sc2ncn(C3OC(CO)C(O)C(O)C3NC(C)=O)n2)OC(CO)C(O)C1O (stereo not given)	> 100

System: ACHN renal
Assay: DTP human tumour cell line panel, 48 h

SMILES	TGI [µM]
Cc1ccc(C(=O)NCc2ccccc2)cc1N=NN(C)C	> 100
c1ccc2c3[nH]c(c2c1)=Nc1ccc(cc1)-c1nc2ccc(cc2o1)N=c1[nH]c(c2ccccc12)=Nc1ccc2nc(oc2c1)-c1ccc(cc1)N=3	35.5
COc1cccc(CC(=O)N2CCN(CCCc3ccccc3)CC2)c1	> 100
Cn1c(=S)c2[nH]c(SCCCc3ccccc3)nc2n(C)c1=O	> 100
